For data set [1], the system named is Hsp90-client proteins HER2, cRaf, Akt and pAkt. Put plainly: Western blotting of Hsp90 client proteins. The conditions noted are these: for Hsp90-client protein levels after washout: SKBR3, 3 h treatment, washing, further 21 h. A general note: In western blotting, separated proteins are transferred to a membrane and probed.
In data set [2] the test system is SKBR3 cells. Put plainly: Cell viability assay (WST-8). The conditions noted are these: for cytotoxicity / growth inhibitory effect after washout: SKBR3, 3 h treatment, washing, further 69 h.
The subject of data set [3] is Hsp90. The conditions noted are these: read-out: reported IC50; cited from earlier work.
Data set [4] concerns intracellular Hsp90. The conditions noted are these: SKBR3 cells, pre-treated 1–10 µM for 3 h, washed, then 11 0.5 µM.
In data set [5] the target is N-terminal ATP binding domain of Hsp90α (Homo sapiens, UniProt P07900).
For data set [6], the target named is N-terminal domain of Hsp90α (Homo sapiens, UniProt P07900). Briefly: In vitro labelling of N-terminal domain of Hsp90α (MALDI-TOF MS). The conditions noted are these: 6.4 µM protein, 10 µM 12, 37 °C; at Lys 58.

Molecules are shown by their SMILES.

Turning to `CC(C)NCCCn1c(Sc2cc3c(cc2I)OCO3)nc2c(N)ncnc21` [PU-H71], the “western blotting bands of Hsp90-client proteins relative to vehicle” value in data set [1] (SKBR3, 1 μM, 24 h without washing) is “dramatically decreased”. In addition, the “Hsp90-client protein levels after washout” value in data set [1] was “did not significantly affect the band intensities”. In data set [2], the “cytotoxicity / growth inhibitory effect after washout” value is on record as “almost abolished the cytotoxicity”. Further, the cytotoxicity result in data set [2] (SKBR3, long-term incubation for 72 h) is reported as “remarkable cytotoxicity”. The concentration for half-maximal inhibition (IC50) in data set [3] is […]. The “blocking of fluorescent labelling of Hsp90 by 11 after washout” value in data set [4] was “failed to block the labelling reaction”.
For `N#CCN(C(=O)CCCC(=O)NCCCn1c(Sc2cc3c(cc2I)OCO3)nc2c(N)ncnc21)S(=O)(=O)c1ccccc1` [compound 12], in data set [1], the “Hsp90-client protein levels after washout” value is reported as “decrease in Hsp90-client proteins was also observed”. Moreover, the affinity in data set [5] corresponds to a Ki of 62 nM. In addition, in data set [5] (pH 7.2, read-out: second-order rate constant of the covalent inhibition), the kinact/KI was found to be 29000 M⁻¹ s⁻¹. In addition, the “cytotoxicity / growth inhibitory effect after washout” value in data set [2] is given as “clearly showed a growth inhibitory effect”. Besides, in data set [6], the “covalent attachment of the PU-H71 ligand to Hsp90 N-terminal domain” value is “quantitative and single covalent attachment”. In addition, the “blocking of fluorescent labelling of Hsp90 by 11 after washout” value in data set [4] is listed as “strongly inhibited the fluorescent labelling”.

The IC50 is the midpoint of a concentration-inhibition curve. As a reminder, the Ki is a measure of affinity in units of concentration, obtained from inhibition or displacement. Lower therefore signals tighter binding.
